The numbers were not newly measured in patent US9662356B1, “Propolis-metal nanoparticle composition and methods of use” (Vets Plus, Inc., priority 2015, dated 2017), which cites them from elsewhere.

This data set has as its system otitis externa. To be noted: case history: treated previously over the course of the year.
Consider `C[C@@H]1[C@H](O)[C@@H](C)/C=C/C=C/CC/C=C/C=C/C=C/C=C/C(O[C@H]2O[C@H](C)[C@@H](O)[C@H](N)[C@@H]2O)CC2O[C@](O)(CC(O)C(O)CCC(O)CC(O)CC(O)CC(=O)O[C@H]1C)CC(O)C2C(=O)O` (stereo partly drawn) [nystatin], for which the “outcome of previous antibiotic treatment of otitis externa” value (shortened to “outcome”) is reported as “to no avail”. For neomycin, the “outcome” value is listed as “to no avail”. polymyxin B: the “outcome” value was “to no avail”.
